# Source: article PMC11995724, “Antibiotic target discovery by integrated phenotypic and activity-based profiling of electrophilic fragments” (Cell chemical biology, 2025)
# Experiment: in vitro
# Conditions: human, hek293t cells
row,SMILES,"viability at 48 h, 25 µM [%]"
1,"C=CC(=O)N1CCC(C(=O)N[C@@H](C)c2ccc(Cl)s2)CC1 [3-E22, N-[(1S)-1-(5-chlorothiophen-2-yl)ethyl]-1-(prop-2-enoyl)piperidine-4-carboxamide]",65.7
2,"C=CC(=O)N(CC)CC(=O)N1CCCC(c2nccn2C)C1 (stereo not shown) [3-F03, N-ethyl-N-{2-[3-(1-methyl-1H-imidazol-2-yl)piperidin-1-yl]-2-oxoethyl}prop-2-enamide]",106
3,"C=CC(=O)N1CCCCC1c1nc2ccccc2n1C (stereo not shown) [3-F04, 1-[2-(1-methyl-1H-1,3-benzodiazol-2-yl)piperidin-1-yl]prop-2-en-1-one]",84.2
4,"C=CC(=O)N1CCC(C(=O)Nc2cccc(NC(=O)C(C)C)c2)CC1 [3-F05, N-[3-(2-methylpropanamido)phenyl]-1-(prop-2-enoyl)piperidine-4-carboxamide]",53.3
5,"C=CC(=O)NCCC(=O)N1CCN(c2nc(C)cs2)CC1 [3-F07, N-{3-[4-(4-methyl-1,3-thiazol-2-yl)piperazin-1-yl]-3-oxopropyl}prop-2-enamide]",52.1
6,"C=CC(=O)NCCC(=O)N1CCc2cc(C)c([N+](=O)[O-])cc21 [3-F08, N-[3-(5-methyl-6-nitro-2,3-dihydro-1H-indol-1-yl)-3-oxopropyl]prop-2-enamide]",82.7
7,"C=CC(=O)NC(C)c1ccc2c(c1)CCC2 (stereo not shown) [3-F09, N-[1-(2,3-dihydro-1H-inden-5-yl)ethyl]prop-2-enamide]",72.3
8,"C=CC(=O)NCc1nnc(COC)[nH]1 [3-F10, N-{[5-(methoxymethyl)-4H-1,2,4-triazol-3-yl]methyl}prop-2-enamide]",102
9,"C=CC(=O)NCc1cccc(CNS(C)(=O)=O)c1 [3-F11, N-{[3-(methanesulfonamidomethyl)phenyl]methyl}prop-2-enamide]",95.9
10,"C=CC(=O)N1CCC(C(=O)N[C@H]2CCOc3c(F)cccc32)CC1 [3-F12, N-[(4S)-8-fluoro-3,4-dihydro-2H-1-benzopyran-4-yl]-1-(prop-2-enoyl)piperidine-4-carboxamide]",64.9
11,"C=CC(=O)N(CCC(N)=O)C1CCOc2ccccc21 (stereo not shown) [3-F13, N-(2-carbamoylethyl)-N-(3,4-dihydro-2H-1-benzopyran-4-yl)prop-2-enamide]",69.2
12,"C=CC(=O)Nc1cc(C)cc(S(C)(=O)=O)c1 [3-F14, N-(3-methanesulfonyl-5-methylphenyl)prop-2-enamide]",94.1
13,"C=CC(=O)N(C)Cc1cn(C)nc1C(C)C [3-F15, N-methyl-N-{[1-methyl-3-(propan-2-yl)-1H-pyrazol-4-yl]methyl}prop-2-enamide]",80.7
14,"C=CC(=O)Nc1ccccc1CNS(C)(=O)=O [3-F16, N-[2-(methanesulfonamidomethyl)phenyl]prop-2-enamide]",104
15,"C=CC(=O)NC(Cn1cncn1)c1ccccc1 (stereo not shown) [3-F17, N-[1-phenyl-2-(1H-1,2,4-triazol-1-yl)ethyl]prop-2-enamide]",71.9
16,"C=CC(=O)NC1CCC(S(C)(=O)=O)C1 (stereo not shown) [3-F18, N-(3-methanesulfonylcyclopentyl)prop-2-enamide]",94.3
17,"C=CC(=O)NCC1CCCN1S(=O)(=O)CC (stereo not shown) [3-F19, N-{[1-(ethanesulfonyl)pyrrolidin-2-yl]methyl}prop-2-enamide]",68.6
18,"C=CC(=O)NCc1cc(C(F)(F)F)on1 [3-F20, N-{[5-(trifluoromethyl)-1,2-oxazol-3-yl]methyl}prop-2-enamide]",84.8
19,"C=CC(=O)NCCN1CCn2nccc2C1 [3-F21, N-(2-{4H,5H,6H,7H-pyrazolo[1,5-a]pyrazin-5-yl}ethyl)prop-2-enamide]",72.8

row,SMILES,"viability at 48 h, 25 µM [%]"
1,"C=CC(=O)N1CCN(Cc2cc(=O)n3ccsc3n2)CC1 [3-F22, 7-{[4-(prop-2-enoyl)piperazin-1-yl]methyl}-5H-[1,3]thiazolo[3,2-a]pyrimidin-5-one]",90.5
2,"C=CC(=O)N1C2C=C(c3nccn3C)CC1CC2 (stereo not shown) [3-G03, 1-[3-(1-methyl-1H-imidazol-2-yl)-8-azabicyclo[3.2.1]oct-2-en-8-yl]prop-2-en-1-one]",52.5
3,"C=CC(=O)N(C)CC(=O)Nc1ccc(C)c(S(=O)(=O)N(C)C)c1 [3-G04, N-({[3-(dimethylsulfamoyl)-4-methylphenyl]carbamoyl}methyl)-N-methylprop-2-enamide]",78.3
4,"C=CC(=O)N(C)c1ccc(C#N)c(Cl)c1 [3-G05, N-(3-chloro-4-cyanophenyl)-N-methylprop-2-enamide]",0.69
5,"C=CC(=O)NC1CCN(c2nnnn2C)CC1 [3-G06, N-[1-(1-methyl-1H-1,2,3,4-tetrazol-5-yl)piperidin-4-yl]prop-2-enamide]",79.8
6,"C=CC(=O)N(CC)CC(=O)N1CCNC(=O)C1c1cccs1 (stereo not shown) [3-G07, N-ethyl-N-{2-oxo-2-[3-oxo-2-(thiophen-2-yl)piperazin-1-yl]ethyl}prop-2-enamide]",40
7,"C=CC(=O)Nc1ccnn1CC1CC1 [3-G09, N-[1-(cyclopropylmethyl)-1H-pyrazol-5-yl]prop-2-enamide]",41.5
8,"C=CC(=O)N1CCCN(S(=O)(=O)c2ccc(OC)cc2)CC1 [3-G10, 1-[4-(4-methoxybenzenesulfonyl)-1,4-diazepan-1-yl]prop-2-en-1-one]",96.8
9,"C=CC(=O)N1CCN(Cc2nc(C(C)C)no2)CC1 [3-G11, 1-(4-{[3-(propan-2-yl)-1,2,4-oxadiazol-5-yl]methyl}piperazin-1-yl)prop-2-en-1-one]",55.2
10,"C=CC(=O)N1CCCC1c1cc(C)no1 (stereo not shown) [3-G12, 1-[2-(3-methyl-1,2-oxazol-5-yl)pyrrolidin-1-yl]prop-2-en-1-one]",91.7
11,"C=CC(=O)N1CCC(C(=O)NC(C)c2cccc(C(F)(F)F)c2)CC1 (stereo not shown) [3-G13, 1-(prop-2-enoyl)-N-{1-[3-(trifluoromethyl)phenyl]ethyl}piperidine-4-carboxamide]",40.6
12,"C=CC(=O)Nc1cccc(OC(C)(C)C)c1 [3-G14, N-[3-(tert-butoxy)phenyl]prop-2-enamide]",85.8
13,"C=CC(=O)N1CCCC(NS(=O)(=O)c2cccc(F)c2)C1 (stereo not shown) [3-G15, 3-fluoro-N-[1-(prop-2-enoyl)piperidin-3-yl]benzene-1-sulfonamide]",58
14,"C=CC(=O)NCC1=NOCC1 [3-G16, N-[(4,5-dihydro-1,2-oxazol-3-yl)methyl]prop-2-enamide]",104
15,"C=CC(=O)NCc1ccc(C(=O)N2CCN(C(C)=O)CC2)cc1 [3-G17, N-{[4-(4-acetylpiperazine-1-carbonyl)phenyl]methyl}prop-2-enamide]",32.9
16,"C=CC(=O)NCCC(=O)N1CCSC(C)(C)C1 [3-G18, N-[3-(2,2-dimethylthiomorpholin-4-yl)-3-oxopropyl]prop-2-enamide]",101
17,"C=CC(=O)NCCC(=O)N1CCC(C)(C)S(=O)(=O)CC1 [3-G19, N-[3-(7,7-dimethyl-1,1-dioxo-1lambda6,4-thiazepan-4-yl)-3-oxopropyl]prop-2-enamide]",41.2
18,"C=CC(=O)NCC1CCN(Cc2ccccc2)CC1C (stereo not shown) [3-G20, N-[(1-benzyl-3-methylpiperidin-4-yl)methyl]prop-2-enamide]",94.1
